# Data: patent US11167007B2, “FOXM1 modulators and uses thereof” (City of Hope, priority 2016, dated 2021)
# What was measured:
# [1] = biological target: T1, FOXM1/β-catenin (Mus musculus, UniProt O08696); assay: Co-immunoprecipitation of β-catenin from GT1-7 cell lysates, Western blot for FOXM1; format: cell-based, murine; conditions: FIG. 3E
# T1 construct: endogenous in cells; host or cells: GT1-7
# T1 sequence (O08696 1-760): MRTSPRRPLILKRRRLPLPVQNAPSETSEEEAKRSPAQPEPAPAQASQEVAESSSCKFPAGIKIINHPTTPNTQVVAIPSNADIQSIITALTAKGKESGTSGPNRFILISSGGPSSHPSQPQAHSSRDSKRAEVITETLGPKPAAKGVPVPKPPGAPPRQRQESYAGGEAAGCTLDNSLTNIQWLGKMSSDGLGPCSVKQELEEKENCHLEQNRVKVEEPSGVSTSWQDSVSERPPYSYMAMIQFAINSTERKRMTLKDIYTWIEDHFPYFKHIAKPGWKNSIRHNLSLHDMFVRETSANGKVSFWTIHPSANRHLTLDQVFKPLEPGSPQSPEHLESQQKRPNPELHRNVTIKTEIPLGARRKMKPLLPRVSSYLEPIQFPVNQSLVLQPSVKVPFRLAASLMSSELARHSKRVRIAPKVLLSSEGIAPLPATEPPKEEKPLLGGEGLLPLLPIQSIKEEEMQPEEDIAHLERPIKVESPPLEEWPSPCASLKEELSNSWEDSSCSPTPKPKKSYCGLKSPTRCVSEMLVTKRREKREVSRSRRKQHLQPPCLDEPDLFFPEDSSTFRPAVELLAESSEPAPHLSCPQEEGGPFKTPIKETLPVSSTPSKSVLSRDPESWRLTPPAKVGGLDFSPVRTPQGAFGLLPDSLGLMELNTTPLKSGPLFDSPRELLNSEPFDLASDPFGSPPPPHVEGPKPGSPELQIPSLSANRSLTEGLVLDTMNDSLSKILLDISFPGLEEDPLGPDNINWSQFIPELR
# Procedure: Immunoprecipitation (IP). The co-IP assay was performed as described by Zhang et al, Cancer Cell, 20(4):427-42 (2011). In brief, cells were lysed on ice for 20 minutes in co-IP buffer containing 10 mmol/L Hepes (pH8), 300 mmol/L NaCL, 0.1 mmol/L EDTA, 20% glycerol, 0.2% NP-40 and protease inhibitor (Roche Diagnostics). Lysate was centrifuged at 10000 g for 10 minutes at 4° C. Lysate was incubated with primary antibody (β-catenin: rabbit, 9562, Cell Signaling Technology) overnight at 4° C. followed by incubation with 30 uL of Protein A/G beads for 2 hours at 4° C. Collected protein complexes were washed and analyzed by Western blotting.
# Western Blot. Cell lysates was separated on a 6% SDS page gel and transferred to a nitrocellulose membrane. The membrane was blocked for one hour in 5% skim milk dissolved in TBS-T and probed with the following antibodies ([…]): FoxM1 (rabbit, GeneTex), AR: 441 (mouse, Santa Cruz Biotechnology), β-catenin (rabbit 9562, Cell Signaling Technology), p84 (mouse, GeneTex) and actin (mouse, Santa Cruz Biotechnology). Horse radish peroxidase linked secondary antibodies were used along with ECL reagents for visualization. Western blots were quantified using Quantity One analysis software (BioRad).
# Co-immunoprecipitation confirmed a direct interaction between β-catenin and FOXM1 as well as between β-catenin and AR (FIG. 3E). […]
# [2] = biological target: T2, AR (Rattus norvegicus, UniProt P15207); assay: Androgen-responsive luciferase reporter assay in L6 skeletal muscle cells; format: cell-based; conditions: FIG. 2B
# T2 construct: endogenous in cells; host or cells: L6 myoblasts
# T2 sequence (P15207 1-902): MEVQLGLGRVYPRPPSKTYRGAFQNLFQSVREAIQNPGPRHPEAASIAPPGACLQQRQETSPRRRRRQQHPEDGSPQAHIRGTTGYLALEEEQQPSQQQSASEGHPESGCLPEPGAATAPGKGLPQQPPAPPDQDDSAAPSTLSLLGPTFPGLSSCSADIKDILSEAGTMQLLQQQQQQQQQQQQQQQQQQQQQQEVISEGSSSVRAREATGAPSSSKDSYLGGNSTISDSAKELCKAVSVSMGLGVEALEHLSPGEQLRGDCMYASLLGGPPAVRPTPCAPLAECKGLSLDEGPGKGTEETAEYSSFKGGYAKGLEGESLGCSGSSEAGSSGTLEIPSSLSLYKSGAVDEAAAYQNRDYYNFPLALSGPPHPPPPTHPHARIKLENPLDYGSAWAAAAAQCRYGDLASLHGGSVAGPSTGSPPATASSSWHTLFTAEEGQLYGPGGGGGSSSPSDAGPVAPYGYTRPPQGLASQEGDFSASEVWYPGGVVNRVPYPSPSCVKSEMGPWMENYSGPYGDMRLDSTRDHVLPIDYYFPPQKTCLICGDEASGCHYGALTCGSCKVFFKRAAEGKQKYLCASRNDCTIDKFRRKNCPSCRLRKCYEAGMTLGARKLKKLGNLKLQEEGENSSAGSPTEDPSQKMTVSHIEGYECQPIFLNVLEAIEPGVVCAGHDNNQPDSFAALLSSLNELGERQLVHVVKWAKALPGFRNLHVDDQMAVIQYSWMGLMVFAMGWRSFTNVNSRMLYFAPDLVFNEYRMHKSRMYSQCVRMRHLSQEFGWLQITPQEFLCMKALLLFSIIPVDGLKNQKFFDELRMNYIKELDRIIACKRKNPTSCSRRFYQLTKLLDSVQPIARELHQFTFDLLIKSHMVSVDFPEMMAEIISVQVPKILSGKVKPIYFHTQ
# Source text: Luciferase Reporter Assay. Cells were transfected using Lipofectamine Plus (Invitrogen) with a normalization plasmid (pRL-SV40, Promega) and an androgen responsive plasmid (MMTV-luciferase or PSA-luciferase) as described in Jones et al, ACS Chem Biol, 3(7):412-8 (2008), and, where indicated, with an shRNA plasmid targeting FOXM1 (adapted for mouse FOXM1 sequence targeting) a scrambled control shRNA plasmid, or ARQ24 or ARQ65 plasmids. Christensen et al, PLoS One, 8(1):e54556 (2013). The following day, cells and drugs were distributed to 96-well plates. 24 hours later, luciferase activity was assessed by a dual luciferase assay kit (Promega) on the Tecan plate reader. Samples were run in quadruplicates and a Student's t test was performed to determine significance, where p<0.05 was considered significant.
# The ability of thiostrepton to inhibit AR activity in additional neuronal cells, including ReNcell CX cells PC12 cells, and in rat L6 skeletal muscle cells was examined (FIG. 2B). Donato et al, BMC Neurosci, 8:36 (2007); Yaffe, Proc Natl Acad Sci USA, 61(2):477-83 (1968).
smiles,measurement,setting,value
C=C(NC(=O)C(=C)NC(=O)c1csc(C2=N[C@@H]3c4csc(n4)[C@H]4NC(=O)c5csc(n5)[C@H]([C@](C)(O)[C@@H](C)O)NC(=O)[C@H]5CSC(=N5)/C(=C/C)NC(=O)[C@H]([C@@H](C)O)NC(=O)c5csc(n5)[C@]3(CC2)NC(=O)[C@H](C)NC(=O)C(=C)NC(=O)[C@H](C)NC(=O)[C@H]([C@@H](C)CC)N[C@@H]2C=Cc3c([C@H](C)O)cc(nc3[C@H]2O)C(=O)O[C@@H]4C)n1)C(N)=O [thiostrepton],amount of FOXM1 pulled down with β-catenin,[1],reduced
same,inhibition of AR activity (luciferase),[2],not muscle cells
